Assay [1] has as its system Leishmania major amastigotes. Description: Leishmania major amastigote assay. In kind it is cell-based. The conditions noted are these: read-out: L. maj EC50.
A further assay relates to L. donovani. Description: L. donovani in vitro assay. In kind it is cell-based, Leishmania donovani.
The test system of the next assay is T. brucei. Description: T. brucei proliferation inhibition assay. In kind it is cell-based, Trypanosoma brucei. The conditions noted are these: read-out: T. brucei EC50 ± S.D.
The test system of the next assay is T. cruzi CA-I/72. Description: T. cruzi in vitro assay, C2C12 host cell. The format is cell-based, Trypanosoma cruzi.
The mark [2] stands for this setting: Leishmania donovani, read-out: L. don EC50, B10R host cell line.
[3] abbreviates: Trypanosoma cruzi, C2C12, read-out: T. cruzi EC50.

In publication PMC11915375 (ACS Infectious Diseases, 2025) one finds EC50 data, which are given here for 26 compounds.

Like-named read-outs stand apart in the source and are kept apart here. Some results are limits rather than exact numbers.

As a reminder, the EC50 is the concentration that produces a half-maximal response.

For `CN1CCN(S(=O)(=O)c2ccc(-c3ccc4nncc(Nc5cnccn5)c4c3)cc2)CC1` [Compound 15a, 6-(4-((4-Methylpiperazin-1-yl)sulfonyl)phenyl)-N-(pyrazin-2-yl)cinnolin-4-amine], the EC50 in assay [1] (Leishmania major) is 7.8 µM; with L. donovani (setting [2]), > 10 µM; in the assay on T. brucei (Trypanosoma brucei), 1.2 ± 0.18 µM; in the assay with T. cruzi CA-I/72 (setting [3]) it was > 10 µM.
For the compound `COc1ccc(Nc2cnnc3cc(-c4cnc(N5CCCN(C)CC5)nc4)ccc23)cc1` [Compound 30b, N-(4-Methoxyphenyl)-7-(2-(4-methyl-1,4-diazepan-1-yl)pyrimidin-5-yl)cinnolin-4-amine], the EC50 in assay [1] (Leishmania major) was > 23 µM; in the assay with T. brucei (Trypanosoma brucei), 0.24 ± 0.088 µM; with T. cruzi CA-I/72 (setting [3]), 0.29 µM.
For `CN1CCN(S(=O)(=O)c2ccc(-c3ccc4c(Nc5ncccn5)cnnc4c3)cc2)CC1` [Compound 16b, 7-(4-((4-Methylpiperazin-1-yl)sulfonyl)phenyl)-N-(pyrimidin-2-yl)cinnolin-4-amine], the EC50 in assay [1] (Leishmania major) was > 11 µM; in the assay with L. donovani (setting [2]), > 10 µM; with T. brucei (Trypanosoma brucei), 11 ± 1.5 µM; in the assay with T. cruzi CA-I/72 (setting [3]), > 10 µM.
`Cc1ccc(Nc2cnnc3ccc(-c4ccc(S(=O)(=O)N5CCN(C)CC5)cc4)cc23)cn1` [Compound 13a, 6-(4-((4-Methylpiperazin-1-yl)sulfonyl)phenyl)-N-(6-methylpyridin-3-yl)cinnolin-4-amine]: the EC50 in assay [1] (Leishmania major) was > 21 µM; in the assay with L. donovani (setting [2]), > 10 µM; in the assay on T. brucei (Trypanosoma brucei), 1.3 ± 0.027 µM; in the assay on T. cruzi CA-I/72 (setting [3]), 8.2 µM.
As to `COc1ccc(Nc2cnnc3cc(-c4cnc(N5CCN(C)CC5)nc4)ccc23)cc1` [Compound 27b, N-(4-Methoxyphenyl)-7-(2-(4-methylpiperazin-1-yl)pyrimidin-5-yl)cinnolin-4-amine], the half-maximal effective concentration (EC50) in assay [1] (Leishmania major) is > 4.7 µM; in the assay with T. brucei (Trypanosoma brucei), 0.36 ± 0.076 µM; in the assay with T. cruzi CA-I/72 (setting [3]) it was 3.3 µM.
In the case of `CN1CCN(c2ncc(-c3ccc4nncc(Nc5ccc(OC(F)(F)F)cc5)c4c3)cn2)CC1` [Compound 28a, 6-(2-(4-Methylpiperazin-1-yl)pyrimidin-5-yl)-N-(4-(trifluoromethoxy)phenyl)cinnolin-4-amine], the concentration giving a half-maximal response (EC50) in assay [1] (Leishmania major) was > 21 µM; in the assay with L. donovani (setting [2]) it was 1.5 µM; in the assay on T. brucei (Trypanosoma brucei), 1 ± 0.12 µM; in the assay with T. cruzi CA-I/72 (setting [3]), 4.2 µM.
Consider `COc1ccc(Nc2cnnc3cc(-c4ccc(S(=O)(=O)N5CCN(C)CC5)cc4)ccc23)nc1` [Compound 19b, N-(5-Methoxypyridin-2-yl)-7-(4-((4-methylpiperazin-1-yl)sulfonyl)phenyl)cinnolin-4-amine], for which the EC50 in assay [1] (Leishmania major) is > 20 µM; in the assay on L. donovani (setting [2]), > 10 µM; in the assay with T. cruzi CA-I/72 (setting [3]), > 10 µM.
On to `O=C(Cn1ccnc1[N+](=O)[O-])NCc1ccccc1` [Benznidazole, reference compound], for which the EC50 in the assay on T. cruzi CA-I/72 (setting [3]) amounted to 3.77 µM.
For `CN1CCN(S(=O)(=O)c2ccc(-c3ccc4c(Nc5cnccn5)cnnc4c3)cc2)CC1` [Compound 15b, 7-(4-((4-Methylpiperazin-1-yl)sulfonyl)phenyl)-N-(pyrazin-2-yl)cinnolin-4-amine], the EC50 in assay [1] (Leishmania major) was > 22 µM; in the assay on L. donovani (setting [2]) it was 5.52 µM; in the assay on T. brucei (Trypanosoma brucei) it was 9.7 ± 2.1 µM; in the assay with T. cruzi CA-I/72 (setting [3]) it was 6.5 ± 2.3 µM.
Consider `CN1CCN(S(=O)(=O)c2ccc(-c3ccc4nncc(Nc5ccc(OC(F)(F)F)cc5)c4c3)cc2)CC1` [Compound 20a, 6-(4-((4-Methylpiperazin-1-yl)sulfonyl)phenyl)-N-(4-(trifluoromethoxy)phenyl)cinnolin-4-amine], for which the EC50 in assay [1] (Leishmania major) amounted to 4.8 µM; in the assay on L. donovani (setting [2]) it was 0.11 µM; in the assay with T. brucei (Trypanosoma brucei), 0.35 ± 0.26 µM; in the assay on T. cruzi CA-I/72 (setting [3]) it was 6.8 µM.
For `CN1CCN(S(=O)(=O)c2ccc(-c3ccc4nncc(Nc5ncccn5)c4c3)cc2)CC1` [Compound 16a, 6-(4-((4-Methylpiperazin-1-yl)sulfonyl)phenyl)-N-(pyrimidin-2-yl)cinnolin-4-amine], the EC50 in assay [1] (Leishmania major) is > 22 µM; in the assay on L. donovani (setting [2]) it was 9 µM; with T. cruzi CA-I/72 (setting [3]), > 10 µM.
`CN1CCN(S(=O)(=O)c2ccc(-c3ccc4nncc(Nc5ncc(Cl)cn5)c4c3)cc2)CC1` [Compound 14a, N-(5-Chloropyrimidin-2-yl)-6-(4-((4-methylpiperazin-1-yl)sulfonyl)phenyl)cinnolin-4-amine]: the half-maximal effective concentration (EC50) in assay [1] (Leishmania major) was 0.005 µM; in the assay on L. donovani (read-out: L. don EC50, B10R host cell line) it was 0.069 µM; in the assay on T. brucei (Trypanosoma brucei), 0.82 ± 0.19 µM; in the assay on T. cruzi CA-I/72 (setting [3]) it was 4.1 µM.
With `COc1ccc(Nc2cnnc3cc(-c4ccc(S(=O)(=O)N5CCN(C)CC5)cc4)ccc23)cc1` [Compound 18b, N-(4-Methoxyphenyl)-7-(4-((4-methylpiperazin-1-yl)sulfonyl)phenyl)cinnolin-4-amine], the EC50 was > 20 µM in assay [1] (Leishmania major), 12 ± 0.63 µM in the assay with T. brucei (Trypanosoma brucei) and 3.2 µM with T. cruzi CA-I/72 (setting [3]).
Consider `COc1ccc(Nc2cnnc3cc(-c4ccc(N5CCN(C)CC5)cc4)ccc23)cc1` [Compound 23b, N-(4-Methoxyphenyl)-7-(4-(4-methylpiperazin-1-yl)phenyl)cinnolin-4-amine], for which the concentration for a half-maximal effect (EC50) is > 24 µM in assay [1] (Leishmania major), 0.078 ± 0.031 µM with T. brucei (Trypanosoma brucei) and 1.1 µM with T. cruzi CA-I/72 (setting [3]).
For `CN1CCCN(S(=O)(=O)c2ccc(-c3ccc4nncc(Nc5ccc(OC(F)(F)F)cc5)c4c3)cc2)CC1` [Compound 34a, 6-(4-((4-Methyl-1,4-diazepan-1-yl)sulfonyl)phenyl)-N-(4-(trifluoromethoxy)phenyl)cinnolin-4-amine], the EC50 in assay [1] (Leishmania major) is > 18 µM; with L. donovani (setting [2]) it was 1.8 µM; in the assay with T. brucei (Trypanosoma brucei), 0.65 ± 0.021 µM; in the assay on T. cruzi CA-I/72 (setting [3]), > 10 µM.
For `COc1ccc(Nc2cnnc3ccc(-c4ccc(S(=O)(=O)N5CCN(C)CC5)cc4)cc23)cc1Cl` [Compound 17a, N-(3-Chloro-4-methoxyphenyl)-6-(4-((4-methylpiperazin-1-yl)sulfonyl)phenyl)cinnolin-4-amine] the same measures were > 19 µM, 9.3 µM, 1.6 ± 0.36 µM and > 10 µM.
For the compound `CN1CCCN(c2ncc(-c3ccc4nncc(Nc5ccc(OC(F)(F)F)cc5)c4c3)cn2)CC1` [Compound 31a, 6-(2-(4-Methyl-1,4-diazepan-1-yl)pyrimidin-5-yl)-N-(4-(trifluoromethoxy)phenyl)cinnolin-4-amine], the concentration for a half-maximal effect (EC50) in assay [1] (Leishmania major) was > 20 µM; in the assay with L. donovani (setting [2]), > 10 µM; in the assay on T. brucei (Trypanosoma brucei) it was 0.25 ± 0.11 µM; in the assay with T. cruzi CA-I/72 (setting [3]), > 10 µM.
For `CN1CCN(c2ncc(-c3ccc4nncc(Nc5ncc(Cl)cn5)c4c3)cn2)CC1` [Compound 26a, N-(5-Chloropyrimidin-2-yl)-6-(2-(4-methylpiperazin-1-yl)pyrimidin-5-yl)cinnolin-4-amine], the EC50 in assay [1] (Leishmania major) is > 4.6 µM; in the assay on L. donovani (setting [2]), > 10 µM; in the assay with T. cruzi CA-I/72 (setting [3]) it was 2.7 µM.
As to `COc1ccc(Nc2cnnc3ccc(-c4cnc(N5CCCN(C)CC5)nc4)cc23)cc1` [Compound 30a, N-(4-Methoxyphenyl)-6-(2-(4-methyl-1,4-diazepan-1-yl)pyrimidin-5-yl)cinnolin-4-amine], the EC50 was > 23 µM in assay [1] (Leishmania major), > 10 µM in the assay with L. donovani (setting [2]), 2.1 ± 0.64 µM with T. brucei (Trypanosoma brucei) and 5.1 µM in the assay with T. cruzi CA-I/72 (setting [3]).
For `COc1cnc(Nc2cnnc3ccc(-c4ccc(N5CCN(C)CC5)cc4)cc23)nc1` [Compound 25a, N-(5-Methoxypyrimidin-2-yl)-6-(4-(4-methylpiperazin-1-yl)phenyl)cinnolin-4-amine], the EC50 was > 4.7 µM in assay [1] (Leishmania major), 9.4 µM in the assay with L. donovani (setting [2]), 1.2 ± 0.38 µM in the assay with T. brucei (Trypanosoma brucei) and 6.1 µM with T. cruzi CA-I/72 (setting [3]).
`COc1ccc(Nc2cnnc3ccc(-c4cnc(N5CCN(C)CC5)nc4)cc23)cc1` [Compound 27a, N-(4-Methoxyphenyl)-6-(2-(4-methylpiperazin-1-yl)pyrimidin-5-yl)cinnolin-4-amine]: the EC50 in assay [1] (Leishmania major) is > 23 µM; in the assay with L. donovani (setting [2]), > 10 µM; in the assay with T. brucei (Trypanosoma brucei) it was 1.3 ± 0.27 µM; with T. cruzi CA-I/72 (setting [3]) it was 4.4 µM.
In the case of `COc1cnc(Nc2cnnc3ccc(-c4cnc(N5CCCN(C)CC5)nc4)cc23)nc1` [Compound 32a, N-(5-Methoxypyrimidin-2-yl)-6-(2-(4-methyl-1,4-diazepan-1-yl)pyrimidin-5-yl)cinnolin-4-amine], the half-maximal effective concentration (EC50) in assay [1] (Leishmania major) was > 23 µM; with L. donovani (setting [2]) it was 8 µM; in the assay with T. brucei (Trypanosoma brucei), 2.9 ± 0.8 µM; in the assay with T. cruzi CA-I/72 (setting [3]), > 10 µM.
`C[C@@H]1[C@H](O)[C@@H](C)/C=C/C=C/C=C/C=C/C=C/C=C/C=C/[C@H](O[C@@H]2O[C@H](C)[C@@H](O)[C@H](N)[C@@H]2O)C[C@@H]2O[C@](O)(C[C@@H](O)C[C@@H](O)[C@H](O)CC[C@@H](O)C[C@@H](O)CC(=O)O[C@H]1C)C[C@H](O)[C@H]2C(=O)O` [Amphotericin B, reference compound]: in the assay with L. donovani (setting [2]), the concentration giving a half-maximal response (EC50) amounted to 0.07 µM.
For the compound `COc1ccc(Nc2cnnc3ccc(-c4ccc(N5CCN(C)CC5)cc4)cc23)cc1` [Compound 23a, N-(4-Methoxyphenyl)-6-(4-(4-methylpiperazin-1-yl)phenyl)cinnolin-4-amine], the EC50 in assay [1] (Leishmania major) was 4.7 µM; in the assay on L. donovani (setting [2]) it was 2.3 µM; in the assay with T. brucei (Trypanosoma brucei), 0.31 ± 0.18 µM; with T. cruzi CA-I/72 (setting [3]), 1.7 µM.
With “7-(4-((4-Methyl-1,4-diazepan-1-yl)sulfonyl)phenyl)-N-(4-(trifluoromethoxy)phenyl)cinnolin-4-amine [Compound 20b]”, the EC50 in assay [1] (amastigotes) was > 3.6 µM; in the assay with T. brucei it was 0.58 ± 0.25 µM; in the assay on T. cruzi CA-I/72 (read-out: T. cruzi EC50, C2C12 host cell), > 10 µM.
Regarding `COc1cnc(Nc2cnnc3ccc(-c4ccc(S(=O)(=O)N5CCCN(C)CC5)cc4)cc23)nc1` [Compound 35a, N-(5-Methoxypyrimidin-2-yl)-6-(4-((4-methyl-1,4-diazepan-1-yl)sulfonyl)phenyl)cinnolin-4-amine], the values for the half-maximal effective concentration (EC50) (in assay [1] (Leishmania major); in the assay with T. brucei (Trypanosoma brucei); in the assay on T. cruzi CA-I/72 (setting [3])) were > 20 µM, 0.27 ± 0.008 µM and > 10 µM, respectively.
